In PubChem BioAssay AID2060327 (Molecular Pharmacology Branch, DTP, NCI, 2025):

Test system: PC-3 multi-cell spheroids, viability
Test: Anticancer human tumor PC-3 cell line growth inhibition [IpAb];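 further: spheroids exposed to compounds for 7 days before readout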;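 on viability, T/C: 100% = DMSO vehicle control wells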
Settings: for IC50: curve of first compound; for viability, T/C: stronger effect = lower value; active means viability on the fitted dose curve at most 10% of control; inactive means the rest
Outline: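 Combinations with ipatasertib or abemaciclib were tested on tumour spheroids holding HUVEC (25%) and MSC (15%) alongside 60% malignant cells. Top concentration was at or near clinical Cmax (10 microM if undefined), descending in half-log steps.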

[1] = second compound 0.1 µM, first compound 0.0316 µM
[2] = second compound 0.1 µM, first compound 0.1 µM
[3] = second compound 0.1 µM, first compound 0.316 µM
[4] = second compound 0.1 µM, first compound 1 µM
[5] = second compound 0.316 µM, first compound 0.0316 µM
[6] = second compound 0.316 µM, first compound 0.1 µM
[7] = second compound 0.316 µM, first compound 0.316 µM
[8] = second compound 0.316 µM, first compound 1 µM
[9] = second compound 1 µM, first compound 0.0316 µM
[10] = second compound 1 µM, first compound 0.1 µM
[11] = second compound 1 µM, first compound 0.316 µM
[12] = second compound 1 µM, first compound 1 µM
[13] = second compound 3.16 µM, first compound 0.0316 µM
[14] = second compound 3.16 µM, first compound 0.1 µM
[15] = second compound 3.16 µM, first compound 0.316 µM
[16] = second compound 3.16 µM, first compound 1 µM
[17] = second compound 10 µM, first compound 0.0316 µM
[18] = second compound 10 µM, first compound 0.1 µM
[19] = second compound 10 µM, first compound 0.316 µM
[20] = second compound 10 µM, first compound 1 µM
[21] = second compound 0.1 µM, first compound 3.16 µM
[22] = second compound 0.1 µM, first compound 10 µM
[23] = second compound 0.316 µM, first compound 3.16 µM
[24] = second compound 0.316 µM, first compound 10 µM
[25] = second compound 1 µM, first compound 3.16 µM
[26] = second compound 1 µM, first compound 10 µM
[27] = second compound 3.16 µM, first compound 3.16 µM
[28] = second compound 3.16 µM, first compound 10 µM
[29] = second compound 10 µM, first compound 3.16 µM
[30] = second compound 10 µM, first compound 10 µM

CC(=O)c1c(C)c2cnc(Nc3ccc(N4CCNCC4)cn3)nc2n(C2CCCC2)c1=O + CC(C)NCC(C(=O)N1CCN(c2ncnc3c2C(C)CC3O)CC1)c1ccc(Cl)cc1
> 0.3 µM: IC50 (second compound 0.1 µM)
< 0.000949 µM: IC50 (second compound 0.316 µM) | IC50 (second compound 1 µM) | IC50 (second compound 3.16 µM) | IC50 (second compound 10 µM)
inactive: viability, T/C (second compound 0.1 µM, first compound 0.000949 µM) 74.1% | viability, T/C (second compound 0.1 µM, first compound 0.003 µM) 63.7% | viability, T/C (second compound 0.1 µM, first compound 0.00949 µM) 51% | viability, T/C (second compound 0.1 µM, first compound 0.03 µM) 51.6% | viability, T/C (second compound 0.1 µM, first compound 0.0949 µM) 52.9% | viability, T/C (second compound 0.1 µM, first compound 0.3 µM) 48.2% | viability, T/C (second compound 0.316 µM, first compound 0.000949 µM) 44.5% | viability, T/C (second compound 0.316 µM, first compound 0.003 µM) 43.3% | viability, T/C (second compound 0.316 µM, first compound 0.00949 µM) 43.8% | viability, T/C (second compound 0.316 µM, first compound 0.03 µM) 40.1% | viability, T/C (second compound 0.316 µM, first compound 0.0949 µM) 33.8% | viability, T/C (second compound 0.316 µM, first compound 0.3 µM) 30.7% | viability, T/C (second compound 1 µM, first compound 0.000949 µM) 26.3% | viability, T/C (second compound 1 µM, first compound 0.003 µM) 23.8% | viability, T/C (second compound 1 µM, first compound 0.00949 µM) 19.6% | viability, T/C (second compound 1 µM, first compound 0.03 µM) 17.2% | viability, T/C (second compound 1 µM, first compound 0.0949 µM) 15.8% | viability, T/C (second compound 1 µM, first compound 0.3 µM) 14.8% | viability, T/C (second compound 3.16 µM, first compound 0.000949 µM) 15.3% | viability, T/C (second compound 3.16 µM, first compound 0.003 µM) 14.2% | viability, T/C (second compound 3.16 µM, first compound 0.00949 µM) 14.2% | viability, T/C (second compound 3.16 µM, first compound 0.03 µM) 13.3% | viability, T/C (second compound 3.16 µM, first compound 0.0949 µM) 11.3% | viability, T/C (second compound 3.16 µM, first compound 0.3 µM) 10.7% | viability, T/C (second compound 10 µM, first compound 0.000949 µM) 13.5% | viability, T/C (second compound 10 µM, first compound 0.003 µM) 12.9% | viability, T/C (second compound 10 µM, first compound 0.00949 µM) 12.5% | viability, T/C (second compound 10 µM, first compound 0.03 µM) 11.6% | viability, T/C (second compound 10 µM, first compound 0.0949 µM) 11.5% | viability, T/C (second compound 10 µM, first compound 0.3 µM) 10.8%

COc1c(OCCCN2CCOCC2)ccc2c3n(c(=NC(=O)c4cnc(N)nc4)nc12)CCN3 + CC(C)NCC(C(=O)N1CCN(c2ncnc3c2C(C)CC3O)CC1)c1ccc(Cl)cc1
0.0214 µM: IC50 (second compound 0.1 µM)
active: viability, T/C [3] 6.89% | viability, T/C [4] 4.7% | viability, T/C [7] 5.71% | viability, T/C [8] 4.51% | viability, T/C [10] 8.53% | viability, T/C [11] 5.57% | viability, T/C [12] 4.27% | viability, T/C [14] 7.88% | viability, T/C [15] 4.58% | viability, T/C [16] 3.91% | viability, T/C [17] 10.3% | viability, T/C [18] 6.13% | viability, T/C [19] 4.33% | viability, T/C [20] 4.03%
< 0.00316 µM: IC50 (second compound 0.316 µM) | IC50 (second compound 1 µM) | IC50 (second compound 3.16 µM) | IC50 (second compound 10 µM)
inactive: viability, T/C (second compound 0.1 µM, first compound 0.00316 µM) 81.5% | viability, T/C (second compound 0.1 µM, first compound 0.01 µM) 59.7% | viability, T/C [1] 48.1% | viability, T/C [2] 18% | viability, T/C (second compound 0.316 µM, first compound 0.00316 µM) 45.1% | viability, T/C (second compound 0.316 µM, first compound 0.01 µM) 40% | viability, T/C [5] 29.5% | viability, T/C [6] 12.2% | viability, T/C (second compound 1 µM, first compound 0.00316 µM) 24.3% | viability, T/C (second compound 1 µM, first compound 0.01 µM) 18.7% | viability, T/C [9] 14% | viability, T/C (second compound 3.16 µM, first compound 0.00316 µM) 15.1% | viability, T/C (second compound 3.16 µM, first compound 0.01 µM) 12.5% | viability, T/C [13] 11.1% | viability, T/C (second compound 10 µM, first compound 0.00316 µM) 12.8% | viability, T/C (second compound 10 µM, first compound 0.01 µM) 11.5%

Cc1nc(NC(=O)N2CCCC2C(N)=O)sc1-c1ccnc(C(C)(C)C(F)(F)F)c1 (stereo not given) + CC(C)NCC(C(=O)N1CCN(c2ncnc3c2C(C)CC3O)CC1)c1ccc(Cl)cc1
inactive: viability, T/C [1] 60.7% | viability, T/C [2] 51.8% | viability, T/C [3] 47.8% | viability, T/C [4] 49.5% | viability, T/C [21] 41.8% | viability, T/C [22] 10.6% | viability, T/C [5] 43.7% | viability, T/C [6] 44.4% | viability, T/C [7] 39.2% | viability, T/C [8] 30.2% | viability, T/C [23] 24.6% | viability, T/C [24] 9.66% | viability, T/C [9] 26.5% | viability, T/C [10] 24.1% | viability, T/C [11] 17.8% | viability, T/C [12] 15.8% | viability, T/C [25] 12.5% | viability, T/C [13] 14.2% | viability, T/C [14] 14.7% | viability, T/C [15] 11.8% | viability, T/C [17] 13.4% | viability, T/C [18] 12.8% | viability, T/C [19] 10.5%
< 0.0316 µM: IC50 (second compound 0.316 µM) | IC50 (second compound 1 µM) | IC50 (second compound 3.16 µM) | IC50 (second compound 10 µM)
active: viability, T/C [26] 5.72% | viability, T/C [16] 11.4% | viability, T/C [27] 8.54% | viability, T/C [28] 3.24% | viability, T/C [20] 9.02% | viability, T/C [29] 7.87% | viability, T/C [30] 2.4%
0.955 µM: IC50 (second compound 0.1 µM)

Cn1nccc1Nc1nccc(-c2ccn(C(CO)c3ccc(Cl)c(F)c3)c(=O)c2)n1 (stereo not given) + CC(C)NCC(C(=O)N1CCN(c2ncnc3c2C(C)CC3O)CC1)c1ccc(Cl)cc1
> 10 µM: IC50 (second compound 0.1 µM)
inactive: viability, T/C [1] 76.7% | viability, T/C [2] 77.3% | viability, T/C [3] 83.1% | viability, T/C [4] 105% | viability, T/C [21] 127% | viability, T/C [22] 104% | viability, T/C [5] 42.8% | viability, T/C [6] 43.8% | viability, T/C [7] 41.9% | viability, T/C [8] 48% | viability, T/C [23] 88.1% | viability, T/C [24] 76.9% | viability, T/C [9] 20.4% | viability, T/C [10] 24.2% | viability, T/C [11] 27.2% | viability, T/C [12] 34.5% | viability, T/C [25] 59.1% | viability, T/C [26] 34.3% | viability, T/C [13] 14.2% | viability, T/C [14] 15.4% | viability, T/C [15] 15.1% | viability, T/C [16] 19.7% | viability, T/C [27] 23.4% | viability, T/C [28] 13.8% | viability, T/C [17] 12.7% | viability, T/C [18] 13.3% | viability, T/C [19] 12.2% | viability, T/C [20] 14.3% | viability, T/C [29] 17.4% | viability, T/C [30] 10.8%
< 0.0316 µM: IC50 (second compound 0.316 µM) | IC50 (second compound 1 µM) | IC50 (second compound 3.16 µM) | IC50 (second compound 10 µM)
